Reference: US20050203068A1, “Pharmaceutical compositions containing water-soluble prodrugs of propofol and methods of administering same” (priority 2002, published 2005)
Where a name gives a salt, the structure may show the parent alone.

Experiments:
healthy subjects [1] = test: Single bolus AQUAVAN, six cohorts: lowest OAA/S score and duration of sedation; format: in vivo, human
Experimental: (§1) Twenty-four healthy subjects (all ASA 1, 25±5 yrs., 70±8 kg) were randomized into 4 cohorts, with 3 male and 3 female in each. Each of the four cohorts was given a single dose of the study formulation described in Table 1 above (5, 10, 20, and 25 mg/kg, AQUAVAN™ respectively). Anesthetic effect was measured continuously using a BIS-XP monitor (Aspect Medical Systems, Natick, Mass.). The lowest BIS level (BISpeak) was recorded. One week later, propofol was given to the same individuals at a rapid infusion rate of 300 ml/h to reach a similar BISpeak. Heart rate (HR), O2 saturation, systolic (SBP) and diastolic (DBP) blood pressure were monitored non-invasively. Incidence and duration of apnea, loss (LOC) and return (ROC) of consciousness and duration of unconsciousness (DOU) were measured with the OAA/S score. Adverse events were recorded. Statistical analysis was performed using Wilcoxon Signed Ranks Test, Mann-Whitney-U test, Chi-Square test and Pearson correlation where appropriate.
In addition to induction of unconsciousness and duration of general anesthesia (see above), the response of the study subjects to AQUAVAN™ was also examined with regard to sedation. For this purpose, two additional cohorts (n=6 each) were dosed with 15 and 30 mg/kg of AQUAVAN™ as described above. For subjects in all six cohorts, the lowest OAA/S score achieved after AQUAVAN™ administration and the duration of sedation were recorded, with an OAA/S score of 5 indicating no sedation, scores ranging from 4-2 indicating increasingly deep sedated states, and a score of 1 indicating loss of consciousness (LOC)(but allowing for an undirected response to painful tactile stimuli). […] A conscious sedated state typically preceded and followed a period of unconsciousness in subjects who reached LOC. “Mean duration of sedation/LOC” in Table 4 refers to the total time interval from onset of sedation through LOC to recovery of alertness (no sedation).

healthy volunteers = test: TCI infusion of AQUAVAN over 2 hours: alertness/sedation (OAA/S, BIS), haemodynamics, propofol plasma concentration
Experimental: A sterile solution of AQUAVAN™ was prepared as described for Example 1, above.
Six female (28±3 yrs, 57±4 kg body weight) and 6 male (32±6 yrs., 78±9 kg body weight) volunteers were studied. For a period of 2 hours, a TCI infusion of AQUAVAN™ was administered to provide adequate sedation. The initially selected target concentration of propofol from AQUAVAN™ was 1.8 μg/ml. Sedation was rated as adequate if according to a modified Observers Assessment of Alertness and Sedation Scale (OAA/S) the OAA/S scale value was 2 to 3. After 60 minutes, the target concentration was increased to 2.4 or 3 μg/ml if the OAA/S scale value was 4 or 5, respectively, or reduced to 1.4 μg/ml if the OAA/S scale value was 0 to 1. With an Aspect® A-1000 monitor and two frontal leads the BIS values were recorded. The ECG, blood pressure, heart rate, SaO2 and GPI as well as propofol plasma concentrations were measured. All values are given as mean±standard deviation.

healthy subjects [2] = test: Single bolus AQUAVAN vs equipotent rapid infusion of propofol: anesthetic effect (BIS, LOC, ROC, DOU), adverse events; format: in vivo, human; settings: for Pain on injection, incidence / Apnea, incidence / Initial increase in heart rate (HR>90 bpm), incidence: 24 subjects; for Pain on injection, incidence: all cohorts; for Apnea, incidence: dose-dependent; for Initial increase in heart rate (HR>90 bpm), incidence: following administration; for Initial increase in heart rate (HR>90 bpm), incidence / Time of BISpeak (lowest BIS level): p<0.05; for Time of BISpeak (lowest BIS level): AQUAVAN bolus 5-25 mg/kg, propofol rapid infusion 300 ml/h to similar BISpeak; for DOU (duration of unconsciousness) / Time to LOC / Time to ROC: n=6, mean ± SD
Experimental: This example compares the pharmacodynamics of propofol when administered as a single, bolus dose of the prodrug O-phosphonooxymethyl-propofol di-sodium salt (AQUAVAN™) in accordance with the present invention, to the pharmacodynamics of propofol when administered as such. A sterile solution, the “study formulation,” was prepared in a 20 mL vial, with 20 mg/mL of AQUAVAN™ and 0.4 wt % NaCl. The pH of the solution was adjusted to 8.6±0.4 with HCl or NaOH, as needed.
as §1

healthy male volunteers = test: Target controlled infusion (TCI) of AQUAVAN vs propofol: EEG, loss/recovery of consciousness and corneal reflex; format: in vivo, human; settings: for Time to LOCR (loss of corneal reflex) / Time to ROC (recovery of consciousness) / Time to ROCR (recovery of corneal reflex) / Time to LOC (loss of consciousness): TCI infusion 60 min, propofol targets 5, 3, 1.5 micrograms/ml; for Time to LOC (loss of consciousness): time after start of infusion
Experimental: This example compares the effects of target controlled infusions (TCI) of propofol and of O-phosphonooxymethyl propofol disodium salt (AQUAVAN™) on electrical brain activity and consciousness of healthy male volunteers. A sterile solution was prepared in a 20 mL vial, with 20 mg/mL of AQUAVAN™ and 0.4 wt % NaCl. The pH of the solution was adjusted to 8.6±0.4 with HCl or NaOH, as needed.
Nine male volunteers (age 19 to 35 yrs., body wt. 70 to 86 kg) received propofol as a target controlled infusion (TCI) with three different target concentrations over 60 min. After a washout period of 14 days, the same volunteers received a TCI infusion of AQUAVAN™ with identical propofol target concentrations (crossover design). The infusion scheme was a linear increasing propofol concentration up to 5 micrograms/ml for the first 20 minutes, a target of 3 micrograms/ml for the following 20 minutes, and a target propofol plasma concentration of 1.5 micrograms/ml for the following 20 minutes. At 60 minutes, the infusion was stopped.
The EEG was recorded using the CATEEM® system and the data analysis was based on the lead O1-CZ. All subjects were tested every 1.5 minutes for Loss and Recovery of Consciousness (LOC and ROC), and for Loss and Recovery of Corneal Reflex (LOCR and ROCR). Arterial blood samples were drawn at predetermined times up to 240 minutes after start of the infusion. The AQUAVAN™ and propofol plasma concentrations were measured with an LC/MS/MS validated assay and an HPLC-FL validated assay (see FIG. 1).

patients = settings: anesthetic induction doses of propofol; Bryson et al.; cited from earlier work
[3] = Cohort 3 (20 mg/kg AQUAVAN bolus; propofol rapid infusion to similar BISpeak)
[4] = Cohort 4 (25 mg/kg AQUAVAN bolus; propofol rapid infusion to similar BISpeak)

## CC(C)c1cccc(C(C)C)c1OCOP(=O)(O)O [AQUAVAN, O-phosphonooxymethyl propofol disodium salt]
Healthy subjects [1]; Cohort 1: 5 mg/kg bolus
  Duration - range: 0 to 16 min
  Mean duration of sedation/LOC: 4.2 min
Healthy subjects [1]; Cohort 2: 10 mg/kg bolus
  Duration - range: 0 to 24 min
  Mean duration of sedation/LOC: 14 min
Healthy subjects [1]; Cohort 3: 20 mg/kg bolus
  Duration - range: 22 to 45 min
  Mean duration of sedation/LOC: 39.5 min
Healthy subjects [1]; Cohort 4: 25 mg/kg bolus
  Duration - range: 42 to 78 min
  Mean duration of sedation/LOC: 57.8 min
Healthy subjects [1]; Cohort 5: 15 mg/kg bolus
  Duration - range: 18 to 34 min
  Lowest OAA/S Score (subjects - score): 6/6 - 1 (LOC)
  Mean duration of sedation/LOC: 22.6 min
Healthy subjects [1]; Cohort 6: 30 mg/kg bolus
  Duration - range: 43 to 96 min
  Mean duration of sedation/LOC: 54.3 min
Healthy subjects [1]; bolus doses of 15 mg/kg and higher
  State observed after bolus: induced unconscious states that varied in duration
Healthy subjects [1]; dose ranges of 5-10 mg/kg
  State observed after bolus: Conscious sedation, but no loss of consciousness
Healthy volunteers; TCI infusion, initial propofol target 1.8 μg/ml, mean±SD
  OAA/S scale value after 60 minutes: 3.7±1.1
Healthy volunteers; after 2 hour TCI infusion, mean±SD
  Time after stopping the infusion to recovery to OAA/S scale value of 5: 18 ± 3 min
Healthy volunteers; decreased from 134±14
  Systolic BP after decrease: 106±10 mm Hg
Healthy volunteers; during the first hour of infusion (96±2 before infusion)
  BIS value: 74±13
Healthy volunteers; during the second hour of infusion
  BIS value: 64±14
Healthy volunteers; from 64±14 to 72±8
  Heart rate increase: 13%
Healthy volunteers; from 134±14 to 106±10 mm Hg
  Systolic BP decrease: 21%
Healthy volunteers; increased from 64±14
  Heart rate after increase: 72±8
Healthy volunteers; target changed at 60 minutes, mean±SD
  Time after TCI target change until OAA/S scale value in target range of 2 to 3: 4.2 ± 2.5 min
Healthy subjects [2]; 5 mg/kg single bolus cohort
  Loss of consciousness (LOC) reached: no LOC was reached
Healthy subjects [2]; 10 mg/kg single bolus cohort
  Loss of consciousness (LOC) reached: no LOC was reached
Healthy subjects [2]; 20 mg/kg single bolus cohort
  Loss of consciousness (LOC) reached: all subjects reached LOC
Healthy subjects [2]; 25 mg/kg single bolus cohort
  Loss of consciousness (LOC) reached: all subjects reached LOC
Healthy subjects [2]
  Pain on injection, incidence: only reported for propofol
  Apnea, incidence: 7 of 24
  Initial increase in heart rate (HR>90 bpm), incidence: 17 of the 24
  Time of BISpeak (lowest BIS level): 630 ± 225 s
Healthy subjects [2]; [3]
  DOU (duration of unconsciousness): 1507 ± 914 s
  Time to LOC: 157 ± 69 s
  Time to ROC: 1664 ± 920 s
Healthy subjects [2]; [4]
  DOU (duration of unconsciousness): 2703 ± 267 s
  Time to LOC: 162 ± 40 s
  Time to ROC: 2865 ± 245 s
Healthy male volunteers
  Time to LOCR (loss of corneal reflex): 16 ± 5 min
  Time to ROC (recovery of consciousness): 73 ± 13 min
  Time to ROCR (recovery of corneal reflex): 46 ± 15 min
  Time to LOC (loss of consciousness): 9 ± 2 min
Healthy male volunteers; plasma propofol from AQUAVAN compared to plasma propofol from propofol, comparable plasma concentrations
  Decrease of Median Power Frequency (MPF) in the EEG: greater decrease of the MPF

## CC(C)c1cccc(C(C)C)c1O [propofol, 2,6-diisopropylphenol]
patients
  Respiratory consequences, including reduction in tidal volume and apnea: share of patients: up to 83%
Healthy subjects [2]
  Pain on injection, incidence: 10 of the 24
  Apnea, incidence: 10 of 24
  Initial increase in heart rate (HR>90 bpm), incidence: 4 of the 24
  Time of BISpeak (lowest BIS level): 358 ± 315 s
Healthy subjects [2]; [3]
  DOU (duration of unconsciousness): 416 ± 94 s
  Time to LOC: 184 ± 63 s
  Time to ROC: 600 ± 105 s
Healthy subjects [2]; [4]
  DOU (duration of unconsciousness): 748 ± 245 s
  Time to LOC: 208 ± 84 s
  Time to ROC: 956 ± 294 s
Healthy male volunteers
  Time to LOCR (loss of corneal reflex): 19 ± 6 min
  Time to ROC (recovery of consciousness): 47 ± 10 min
  Time to ROCR (recovery of corneal reflex): 32 ± 10 min
  Time to LOC (loss of consciousness): 13 ± 2 min
